Measured values: patent publication US9815843B2, “Compound, photosensitive resin composition comprising the same, and color filter” (Samsung SDI Co., Ltd., priority 2015, dated 2017)

Assay: Solubility measurement in dilution solvent (PGMEA)
Type: physicochemical
Settings: 0.5 g compound, 25° C., 100 rpm, one hour
Experimental: A dilution solvent (PGMEA) is respectively added to 0.5 g of the compounds according to Synthesis Examples 8 to 17 and Comparative Synthesis Examples 1 and 2, and each solution is stirred with a mixrotar (MIXROTAR VMR-5, Iuchi Seieido Co., Ltd.) at 25° C. and 100 rpm for one hour.
Reference for Solubility Evaluation
Greater than or equal to 10 wt % of a compound (a solute) is dissolved based on the total amount of a dilution solvent: ∘
Greater than or equal to 5 wt % but less than 10 wt % of a compound (a solute) is dissolved based on the total amount of a dilution solvent: Δ
Less than 5 wt % of a compound (a solute) is dissolved based on the total amount of a dilution solvent: X

In the case of CCCCCOc1c(Cl)c(Cl)c2c(c1Cl)C1=NC/2=N\c2c3c(Cl)c(Cl)c(OCCCCC)c(Cl)c3c3[n]2[Zn][n]2/c(c4c(Cl)c(Cl)c(OCCCCC)c(Cl)c4/c2=N/1)=N\C1=NC(=N\3)/c2c(Cl)c(Cl)c(OCCCCC)c(Cl)c21 [Comparative Synthesis Example 2], the Solubility is reported as “Δ (Greater than or equal to 5 wt % but less than 10 wt % of a compound (a solute) is dissolved based on the total amount of a dilution solvent)”.
